Test results from ChEMBL document CHEMBL4184139, “Adamantyl- and other polycyclic cage-based conjugates of desferrioxamine B (DFOB) for treating iron-mediated toxicity in cell models of Parkinson's disease” (Bioorg Med Chem Lett, 2017).
The source made the active and inactive calls. The rule behind the calls is not given here.

Key:
SK-N-BE(2)-M17 [1] = test: Cytoprotection against PQ-induced cell death in human SK-N-BE(2)-M17 cells assessed as increase in cell viability at 100 uM pretreated for 2 hrs followed by 1 mM PQ addition measured after 24 hrs by LDH assay; assay type: functional, cell-based
[2] = Binding affinity to Fe3+ assessed as change in retention time for compound-Fe3+ complex by RP-HPLC analysis relative to free ligand
[3] = Octanol-water partition coefficient, log P of the compound at 1 mg by RP-HPLC analysis; assay type: physicochemical
SK-N-BE(2)-M17 [4] = test: Cytoprotection against H2O2-induced cell death in human SK-N-BE(2)-M17 cells assessed as increase in cell viability at 100 uM pretreated for 2 hrs followed by 1 mM H2O2 addition measured after 24 hrs by MTT assay; assay type: functional, cell-based
SK-N-BE(2)-M17 [5] = test: Cytoprotection against PQ-induced cell death in human SK-N-BE(2)-M17 cells assessed as increase in cell viability at 100 uM treated 2 hrs post 2 mM PQ treatment measured after 24 hrs by LDH assay; assay type: functional, cell-based
Astrocyte [6] = test: Cytoprotection against H2O2-induced cell death in BSO pretreated C57BL6/J mouse brain primary astrocytes assessed as increase in cell viability at 10 uM pretreated for 2 hrs followed by H2O2 addition measured after 24 hrs by MTT assay; assay type: functional, cell-based
SK-N-BE(2)-M17 [7] = test: Cytotoxicity against human SK-N-BE(2)-M17 cells at 100 uM 24 hrs by LDH release assay; assay type: cell-based; details: sk-n-be(2)-m17, 24 h
SK-N-BE(2)-M17 [8] = test: Cytoprotection against PQ-induced cell death in human SK-N-BE(2)-M17 cells assessed as increase in cell viability at 100 uM treated post 200 uM Fecl3 and 1 mM PQ treatment measured after 24 hrs by LDH assay; assay type: functional, cell-based
SK-N-BE(2)-M17 [9] = test: Cytoprotection against H2O2-induced cell death in human SK-N-BE(2)-M17 cells assessed as increase in cell viability at 100 uM treated 2 hrs post 0.8 mM H2O2 treatment measured after 24 hrs by MTT assay; assay type: functional, cell-based
SK-N-BE(2)-M17 [10] = test: Cytoprotection against PQ-induced cell death in human SK-N-BE(2)-M17 cells assessed as increase in cell viability at 100 uM treated post 200 uM Fecl3 and 1 mM PQ treatment measured after 24 hrs by MTT assay; assay type: functional, cell-based
[11] = Binding affinity to Fe3+ assessed as [M+H]+ adduct formation by LC-MS/MS analysis
SK-N-BE(2)-M17 [12] = test: Cytoprotection against PQ-induced cell death in human SK-N-BE(2)-M17 cells assessed as increase in cell viability at 100 uM treated 2 hrs post 2 mM PQ treatment measured after 24 hrs by MTT assay; assay type: functional, cell-based
SK-N-BE(2)-M17 [13] = test: Cytoprotection against H2O2-induced cell death in human SK-N-BE(2)-M17 cells assessed as increase in cell viability at 100 uM pretreated for 2 hrs followed by 1 mM H2O2 addition measured after 24 hrs by LDH assay; assay type: functional, cell-based
[14] = Binding affinity to Fe3+ assessed as [M+2H]+ adduct formation by LC-MS/MS analysis
Astrocyte [15] = test: Cytoprotection against H2O2-induced cell death in BSO pretreated C57BL6/J mouse brain primary astrocytes assessed as increase in cell viability at 10 uM pretreated for 2 hrs followed by H2O2 addition measured after 24 hrs by LDH release assay; assay type: functional, cell-based
SK-N-BE(2)-M17 [16] = test: Cytotoxicity against human SK-N-BE(2)-M17 cells at 100 uM 24 hrs by MTT assay; assay type: cell-based; details: sk-n-be(2)-m17, 24 h
SK-N-BE(2)-M17 [17] = test: Cytoprotection against PQ-induced cell death in human SK-N-BE(2)-M17 cells assessed as increase in cell viability at 100 uM pretreated for 2 hrs followed by 1 mM PQ addition measured after 24 hrs by MTT assay; assay type: functional, cell-based
SK-N-BE(2)-M17 [18] = test: Cytoprotection against H2O2-induced cell death in human SK-N-BE(2)-M17 cells assessed as increase in cell viability at 100 uM treated 2 hrs post 0.8 mM H2O2 treatment measured after 24 hrs by LDH assay; assay type: functional, cell-based
SK-N-BE(2)-M17 [19] = test: Cytoprotection against PQ-induced cell death in human SK-N-BE(2)-M17 cells assessed as increase in cell viability treated 2 hrs post 2 mM PQ treatment measured after 24 hrs by MTT assay; assay type: functional, cell-based

Compound | Activity (SK-N-BE(2)-M17 [1]) | Retention time [2] | logP [3] | Activity (SK-N-BE(2)-M17 [4]) | Activity (SK-N-BE(2)-M17 [5]) | Activity (Astrocyte [6]) | Activity (SK-N-BE(2)-M17 [7]) | Activity (SK-N-BE(2)-M17 [8]) | Activity (SK-N-BE(2)-M17 [9]) | Activity (SK-N-BE(2)-M17 [10]) | Activity [11] | Activity (SK-N-BE(2)-M17 [12]) | Activity (SK-N-BE(2)-M17 [13]) | Activity [14] | Activity (Astrocyte [15]) | Activity (SK-N-BE(2)-M17 [16]) | Activity (SK-N-BE(2)-M17 [17]) | Activity (SK-N-BE(2)-M17 [18]) | EC50 (SK-N-BE(2)-M17 [19])
CC(=O)N(O)CCCCCNC(=O)CCC(=O)N(O)CCCCCNC(=O)CCC(=O)N(O)CCCCCNC(=O)C12CC3CC(CC(C3)C1)C2 | Active | 0.43 min | 1.32 | Active | Active | Active | Non-Toxic | Active | Active | Active | Active | Active | Active | Active | Active | Non-Toxic | Active | Active | 
CC(=O)N(O)CCCCCNC(=O)CCC(=O)N(O)CCCCCNC(=O)CCC(=O)N(O)CCCCCNC(=O)C12CC3CC(C1)CC(c1ccc([N+](=O)[O-])cc1)(C3)C2 | Active | 1.71 min | 2.09 | Active | Active | Active | Non-Toxic | Active | Active |  | Active | Active | Active | Active | Active | Non-Toxic | Active | Active | 
CC(=O)N(O)CCCCCNC(=O)CCC(=O)N(O)CCCCCNC(=O)CCC(=O)N(O)CCCCCNC(=O)[C@H]1C[C@H]2CC[C@H]1C2 (relative stereo) | Active | 0.08 min | 0.55 | Active | Active |  | Non-Toxic | Active | Active | Active | Active | Active | Active | Active |  | Non-Toxic | Active | Active | 
CC(=O)N(O)CCCCCNC(=O)CCC(=O)N(O)CCCCCNC(=O)CCC(=O)N(O)CCCCCNC(=O)C12CC3CC(CC(Br)(C3)C1)C2 | inactive | 0.91 min | 1.9 | inactive | inactive | Active | Non-Toxic |  | inactive |  | Active | inactive | inactive | Active |  | Non-Toxic | inactive | inactive | 
COC(=O)c1ccccc1C(=O)OC [DIMETHYL PHTHALATE] |  |  | 1.59 |  |  |  |  |  |  |  |  |  |  |  |  |  |  |  | 
CC(=O)N(O)CCCCCNC(=O)CCC(=O)N(O)CCCCCNC(=O)CCC(=O)N(O)CCCCCNC(=O)C12CC3CC(CC(Cl)(C3)C1)C2 | inactive | 0.83 min | 1.84 | inactive | inactive | Active | Non-Toxic |  | inactive | Active | Active | inactive | inactive | Active | Active | Non-Toxic | inactive | inactive | 
CC(=O)N(O)CCCCCNC(=O)CCC(=O)N(O)CCCCCNC(=O)CCC(=O)N(O)CCCCCNC(=O)C12CC3(C)CC(C)(CC(C)(C3)C1)C2 | Active | 1.85 min | 2.54 | Active |  | Active | Non-Toxic | Active | Active | Active | Active | Active | Active | Active | Active | Non-Toxic | Active |  | 3.4 µM
c1ccc2c(c1)oc1ccccc12 [DIBENZOFURAN] |  |  | 3.76 |  |  |  |  |  |  |  |  |  |  |  |  |  |  |  | 
CC(=O)N(O)CCCCCNC(=O)CCC(=O)N(O)CCCCCNC(=O)CCC(=O)N(O)CCCCCNC(=O)C1CC2CCCC(C2)C1 (stereo not given) | inactive | 0.65 min | 1.87 | inactive | inactive | Active | Non-Toxic | Active | inactive | Active | Active | inactive | inactive | Active | Active | Non-Toxic | inactive | inactive | 
CC(=O)N(O)CCCCCNC(=O)CCC(=O)N(O)CCCCCNC(=O)CCC(=O)N(O)CCCCCNC(=O)[C@H]1C[C@H]2C=C[C@H]1C2 | Active | -0.52 to 0 min | 0.5 to 1.4 | Active | Active |  | Non-Toxic | Active | Active | Active | Active | Active | Active | Active |  | Non-Toxic | Active | Active | 
CC(=O)N(O)CCCCCNC(=O)CCC(=O)N(O)CCCCCNC(=O)CCC(=O)N(O)CCCCCNC(=O)C12CC3CC(CC1C3)C2 | Active | 0.48 min | 0.98 | Active |  | Active | Non-Toxic |  | Active | Active | Active | Active | Active | Active |  | Non-Toxic | Active |  | 30 µM
CC(=O)N(O)CCCCCNC(=O)CCC(=O)N(O)CCCCCNC(=O)CCC(=O)N(O)CCCCCNC(=O)CC12CC3CC(CC(O)(C3)C1)C2 | Active | -0.52 min | 0.15 | Active |  |  | Non-Toxic |  |  |  | Active |  | Active | Active |  | Non-Toxic | Active |  | 
CC(=O)N(O)CCCCCNC(=O)CCC(=O)N(O)CCCCCNC(=O)CCC(=O)N(O)CCCCCNC(=O)CC12CC3CC(CC(Br)(C3)C1)C2 | inactive | 1.09 min | 1.84 | inactive | inactive |  | Non-Toxic |  | inactive |  | Active | inactive | inactive | Active |  | Non-Toxic | inactive | inactive | 
CC(=O)N(O)CCCCCNC(=O)CCC(=O)N(O)CCCCCNC(=O)CCC(=O)N(O)CCCCCNC(=O)C[C@H]1C[C@H]2CC[C@H]1C2 (relative stereo) | Active | 0.27 min | 1.16 | Active | Active |  | Non-Toxic |  | Active |  | Active | Active | Active | Active |  | Non-Toxic | Active | Active | 
c1ccc2ccccc2c1 |  |  | 3.27 |  |  |  |  |  |  |  |  |  |  |  |  |  |  |  | 
